Reference: ChEMBL document CHEMBL3885861, “Open TG-GATES”

Species on record: Rattus norvegicus
Assay: Open TG-GATES - Regimen: Single
Format: toxicity, organism-based, Sprague-Dawley
Design: regimen Single, gender Male, age 6 weeks
Conditions: in vivo, iv, 60 mg/kg, route intravenous injection, dose level High; for APTT / Bas / Eos / Fbg / Hb / Ht / Lym / MCH / MCHC / MCV / Mono / Neu / PT / Plat / RBC / Ret / WBC: tissue Blood; for KIDNEY_L / KIDNEY_R / KIDNEY_TOTAL: tissue Kidney; for LIVER: tissue Liver; for A/G / ALP / ALT / AST / BUN / CRE / Ca / Cl / DBIL / GLC / IP / K / LDH / Na / PL / RALB / TBIL / TC / TG / TP / gamma-GTP: tissue Plasma

Work on `NCCBr` [BROMOETHANAMINE] yielded a TERMINAL_BW (3 h) of 212.4 g, an APTT (3 h) of 23.5 s and a Bas (3 h) of 0%. The Eos (3 h) was 0.6%, the Fbg (3 h) was 312.8 mg/dL and the Hb (3 h) was 14.4 g/dL. It also gave a Ht (3 h) of 41.9%, a Lym (3 h) of 70.8% and an MCH (3 h) of 21.8 pg. The MCHC (3 h) was 34.5%, the MCV (3 h) was 63.3 fL and the Mono (3 h) was 2.4%. For the same molecule, the Neu (3 h) was 25.4%, the PT (3 h) was 16.1 s and the Plat (3 h) was 131.5 x10_4/uL. It also gave an RBC (3 h) of 661.2 x10_4/ul, a Ret (3 h) of 6% and a WBC (3 h) of 39.6 x10_2/uL. For the same molecule, the KIDNEY_L (3 h) was 0.9 g, the KIDNEY_R (3 h) was 1 g and the KIDNEY_TOTAL (3 h) was 1.9 g. The LIVER (3 h) was 9.3 g, the A/G (3 h) was 1.2 and the ALP (3 h) was 1494.4 IU/L. The ALT (3 h) was 47 IU/L, the AST (3 h) was 56.8 IU/L and the BUN (3 h) was 13.4 mg/dL. It also gave a CRE (3 h) of 0.1 mg/dL, a Ca (3 h) of 10.7 mg/dL and a Cl (3 h) of 106.8 meq/L. It also gave a DBIL (3 h) of 0.002 mg/dL, a GLC (3 h) of 166.2 mg/dL and an IP (3 h) of 10.5 mg/dL. For the same molecule, the K (3 h) was 4.1 meq/L, the LDH (3 h) was 321.8 IU/L and the Na (3 h) was 143.4 meq/L. The PL (3 h) was 141 mg/dL, the RALB (3 h) was 3.1 g/dL and the TBIL (3 h) was 0.014 mg/dL. For the same molecule, the TC (3 h) was 85.4 mg/dL, the TG (3 h) was 46.4 mg/dL and the TP (3 h) was 5.9 g/dL. For the same molecule, the gamma-GTP (3 h) was 1 IU/L, the TERMINAL_BW (6 h) was 208.7 g and the APTT (6 h) was 23.1 s. The Bas (6 h) was 0%, the Eos (6 h) was 0.6% and the Fbg (6 h) was 325.6 mg/dL. The Hb (6 h) was 14.2 g/dL, the Ht (6 h) was 40.9% and the Lym (6 h) was 74.2%. It also gave an MCH (6 h) of 20.9 pg, an MCHC (6 h) of 34.8% and an MCV (6 h) of 60.1 fL. The Mono (6 h) was 1.6%, the Neu (6 h) was 23.2% and the PT (6 h) was 16.1 s. It also gave a Plat (6 h) of 136 x10_4/uL, an RBC (6 h) of 681 x10_4/ul and a Ret (6 h) of 5.4%. For the same molecule, the WBC (6 h) was 35.9 x10_2/uL, the KIDNEY_L (6 h) was 1 g and the KIDNEY_R (6 h) was 1 g. The KIDNEY_TOTAL (6 h) was 2 g, the LIVER (6 h) was 9.1 g and the A/G (6 h) was 1.2. It also gave an ALP (6 h) of 1401.4 IU/L, an ALT (6 h) of 39.2 IU/L and an AST (6 h) of 54.2 IU/L. The BUN (6 h) was 15.6 mg/dL, the CRE (6 h) was 0.1 mg/dL and the Ca (6 h) was 10.6 mg/dL. It also gave a Cl (6 h) of 101.4 meq/L, a DBIL (6 h) of 0.004 mg/dL and a GLC (6 h) of 201 mg/dL. The IP (6 h) was 10.2 mg/dL, the K (6 h) was 4 meq/L and the LDH (6 h) was 362.4 IU/L. It also gave a Na (6 h) of 142 meq/L, a PL (6 h) of 133 mg/dL and an RALB (6 h) of 3.2 g/dL. For the same molecule, the TBIL (6 h) was 0.01 mg/dL, the TC (6 h) was 80.8 mg/dL and the TG (6 h) was 27.6 mg/dL. For the same molecule, the TP (6 h) was 6 g/dL, the gamma-GTP (6 h) was 1.2 IU/L and the TERMINAL_BW (9 h) was 202.6 g. For the same molecule, the APTT (9 h) was 24.1 s, the Bas (9 h) was 0% and the Eos (9 h) was 0.2%. For the same molecule, the Fbg (9 h) was 341.6 mg/dL, the Hb (9 h) was 14.9 g/dL and the Ht (9 h) was 42.6%. The Lym (9 h) was 71%, the MCH (9 h) was 21.5 pg and the MCHC (9 h) was 35%. For the same molecule, the MCV (9 h) was 61.4 fL, the Mono (9 h) was 3.2% and the Neu (9 h) was 24.2%. It also gave a PT (9 h) of 15.8 s, a Plat (9 h) of 135.3 x10_4/uL and an RBC (9 h) of 695 x10_4/ul. It also gave a Ret (9 h) of 5.2%, a WBC (9 h) of 40.1 x10_2/uL and a KIDNEY_L (9 h) of 1 g. It also gave a KIDNEY_R (9 h) of 1 g, a KIDNEY_TOTAL (9 h) of 2 g and an LIVER (9 h) of 8.8 g. For the same molecule, the A/G (9 h) was 1.2, the ALP (9 h) was 1484.2 IU/L and the ALT (9 h) was 34.4 IU/L. The AST (9 h) was 49.6 IU/L, the BUN (9 h) was 19.8 mg/dL and the CRE (9 h) was 0.2 mg/dL. The Ca (9 h) was 10.7 mg/dL, the Cl (9 h) was 101.4 meq/L and the DBIL (9 h) was 0 mg/dL. The GLC (9 h) was 223.8 mg/dL, the IP (9 h) was 9.1 mg/dL and the K (9 h) was 3.6 meq/L. It also gave an LDH (9 h) of 316.2 IU/L, a Na (9 h) of 142 meq/L and a PL (9 h) of 154.6 mg/dL. For the same molecule, the RALB (9 h) was 3.4 g/dL, the TBIL (9 h) was 0.016 mg/dL and the TC (9 h) was 86.8 mg/dL. It also gave a TG (9 h) of 84.2 mg/dL, a TP (9 h) of 6.2 g/dL and a gamma-GTP (9 h) of 1.4 IU/L. It also gave a TERMINAL_BW (24 h) of 206.5 g, an APTT (24 h) of 24.1 s and a Bas (24 h) of 0%. The Eos (24 h) was 0.6%, the Fbg (24 h) was 354.4 mg/dL and the Hb (24 h) was 14.6 g/dL. For the same molecule, the Ht (24 h) was 42.3%, the Lym (24 h) was 81.6% and the MCH (24 h) was 21 pg. The MCHC (24 h) was 34.6%, the MCV (24 h) was 60.9 fL and the Mono (24 h) was 2.6%. It also gave a Neu (24 h) of 13.8%, a PT (24 h) of 16.1 s and a Plat (24 h) of 130.9 x10_4/uL. The RBC (24 h) was 695 x10_4/ul, the Ret (24 h) was 4% and the WBC (24 h) was 90.8 x10_2/uL. It also gave a KIDNEY_L (24 h) of 1 g, a KIDNEY_R (24 h) of 1 g and a KIDNEY_TOTAL (24 h) of 1.9 g. The LIVER (24 h) was 8.1 g, the A/G (24 h) was 1.2 and the ALP (24 h) was 1421.6 IU/L. The ALT (24 h) was 35.4 IU/L, the AST (24 h) was 61.4 IU/L and the BUN (24 h) was 18.4 mg/dL. The CRE (24 h) was 0.2 mg/dL, the Ca (24 h) was 10.7 mg/dL and the Cl (24 h) was 109.4 meq/L. For the same molecule, the DBIL (24 h) was 0.004 mg/dL, the GLC (24 h) was 174 mg/dL and the IP (24 h) was 7.9 mg/dL. It also gave a K (24 h) of 4.2 meq/L, an LDH (24 h) of 278.8 IU/L and a Na (24 h) of 142.8 meq/L. For the same molecule, the PL (24 h) was 141.4 mg/dL, the RALB (24 h) was 3.1 g/dL and the TBIL (24 h) was 0.028 mg/dL. For the same molecule, the TC (24 h) was 91.4 mg/dL, the TG (24 h) was 36.4 mg/dL and the TP (24 h) was 5.8 g/dL. It also gave a gamma-GTP (24 h) of 1.6 IU/L.
